From patent US7432050B2, “Methods and compositions for detecting colon cancers” (Case Western Reserve University, priority 2001, dated 2008)
Entries after “also recorded” stand apart in the source; their conditions may differ.

System: HLTF expression
Assay: RT-PCR assay for HLTF expression reactivation after 5-azacytidine treatment
Assay type: cell-based, human
Description: The cultures were grown and treated as described previously (Veigl, et al., 1998, Proc. Natl. Acad. Sci. USA, 95:8698-8702). The optimal tolerated doses were determined for each treated line, and two doses were used for some lines, ranging from 1 μg/ml to 3 μg/ml.
To establish that methylation was responsible for silencing HLTF gene expression, cell lines with HLTF DNA methylation were treated with 5-azacytidine (5-azaC), a demethylating agent.

## Nc1ncn([C@@H]2O[C@H](CO)[C@@H](O)[C@H]2O)c(=O)n1 [5-azaC, 5-azacytidine]
Colon cancer cell lines with HLTF DNA methylation (RCA, V457, SW480, V5, V6, V432), 1 μg/ml to 3 μg/ml
  reactivation of HLTF expression: reactivates HLTF expression; also recorded: reactivated HLTF expression in all these cell lines
Control cell lines with constitutive HLTF expression and unmethylated HLTF DNA (V429, V503)
  change of HLTF expression in control cell lines: did not further increase HLTF expression
